Data reported in patent US11208404B2 (PERENNA PHARMACEUTICALS, INC., priority 2017, dated 2021).
Read-outs that look alike come from different tables or passages of the source.

Target: ALCAT1 (Homo sapiens (Human), UniProt Q6UWP7)
Assay: In vitro acyltransferase assay for ALCAT1 inhibitors
Type: biochemical
Details: for inhibition at 1 µM / % inh @ 1 μM: 1 μM compound; for inhibition at 1 µM / inhibition at 10 µM / % inh @ 1 μM: in vitro enzymatic assay; for inhibition at 10 µM: 10 μM compound; for IC50: ALCAT1 enzyme activity
Excerpt: The human ALCAT1 protein were expressed in Spodoptera frugiperda (Sf9) insect cells by using a Bac-to-Bac baculovirus expression system (Invitrogen) according to the manufacturer's instruction. High-titer recombinant baculovirus expressing the human ALCAT1 protein was generated by several rounds of viral amplification. The Sf9 cells were typically infected with recombinant baculovirus for 3 days, harvested in ice-cold phosphate-buffered saline (PBS), and homogenized in 20 mm NaCl by going through French press. The total cell lysates were centrifuged at 10,000×g for 1 hours at 4° C. to eliminate the nucleus fraction, followed by ultracentrifugation at 100,000×g to pallet the membrane fraction. The membrane fraction was resuspended in enzymatic buffer that contain 10% glycerol, quantified for protein concentration, aliquoted, and stored at −80° C.
ALCAT1 enzymatic activity was determined by measuring the conversion of monolysocardiolipin (MLCL) to cardiolipin or lysophosphatidylglycerol (LPG) to phosphatidylglycerol (PG) in an enzymatic reaction mixture that contained 50 mm Tris/HCl, pH 7.0, 100 μm lysophospholipids, 25 μm [^14C]acyl-CoA (50 mCi/mmol, American Radiolabeled Chemicals, Inc), and membrane fraction (0.5-2.5 μg) in a total volume of 200 μl. The reaction was incubated at room temperature for 30 min. The lipids were extracted will chloroform, dried, and separated by thin layer chromatography (TLC) with chloroform:hexane:methanol:acetic acid (50:30:10:5, v/v) or chloroform:methanol:water (65:25:4, v/v). After separation, TLC plates were exposed to a Phosphorlmager screen to visualize the radiolabeled products with a Molecular Dynamics Typhoon Scanner (Sunnyvale, Calif.). In some experiments, NBD-CoA was used at 100 μM to replace the [^14C]acyl-CoA in the enzymatic reaction. All quantitative data were expressed as mean±S.E. Statistical analyses for differences between two groups were carried out using a Student's t test.
Compound inhibitors for ALCAT1 enzyme were analyzed by an in vitro enzymatic assay as detailed above. Compound inhibitors were added to the enzymatic mixture at 1-20 μM concentrations before the start of the acyltransferase reaction.
Where multiple measurements were taken this is indicated by a “/” between multiple values.
IC50 values for each compound were analyzed in triplicates, and calculated by GraphPad software.

[1] = triplicates, GraphPad, read-out: IC50

ALCAT1, sequence (Q6UWP7 whole entry): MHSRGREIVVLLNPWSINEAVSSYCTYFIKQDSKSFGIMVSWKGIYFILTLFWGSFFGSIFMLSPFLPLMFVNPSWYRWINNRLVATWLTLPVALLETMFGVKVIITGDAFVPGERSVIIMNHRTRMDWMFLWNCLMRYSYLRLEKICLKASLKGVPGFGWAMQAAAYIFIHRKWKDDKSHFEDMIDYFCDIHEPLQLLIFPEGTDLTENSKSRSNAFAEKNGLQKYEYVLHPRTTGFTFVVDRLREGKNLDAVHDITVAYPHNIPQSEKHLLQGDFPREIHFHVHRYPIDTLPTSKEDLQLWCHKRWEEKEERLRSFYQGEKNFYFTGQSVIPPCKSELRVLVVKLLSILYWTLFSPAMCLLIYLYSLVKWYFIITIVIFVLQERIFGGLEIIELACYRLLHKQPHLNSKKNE

SMILES | inhibition at 1 µM [%] | inhibition at 10 µM [%] | IC50 [1] [nM] | IC50 (read-out: IC50 values (upper bounds)) [nM] | % inh @ 1 μM [%]
COC(=O)c1ccc(OC)c(C(=O)Nc2cccc(-c3nnc(-c4ccco4)o3)c2)c1 [Compound 115] | 51 | 53 | – | – | –
CCCOc1ccc(Br)cc1C(=O)Nc1cccc(-c2nnc(-c3ccco3)o2)c1 [Compound 119, 5-Bromo-N-(3-(5-(furan-2-yl)-1,3,4-oxadiazol-2-yl)phenyl)-2-propoxybenzamide] | 92 | 95 | 90 | – | –
COc1ccc(Br)cc1C(=O)Nc1cccc(-c2nnc(-c3ccco3)o2)c1 [Compound 120, 5-Bromo-N-(3-(5-(furan-2-yl)-1,3,4-oxadiazol-2-yl)phenyl)-2-methoxybenzamide] | 94 | 100 | 38 | – | –
CCOc1ccc(Cl)cc1C(=O)Nc1cccc(-c2nnc(-c3ccco3)o2)c1 [Compound 122, 5-Chloro-2-ethoxy-N-(3-(5-(furan-2-yl)-1,3,4-oxadiazol-2-yl)phenyl)benzamide] | 100 | 100 | 39 | – | –
CCCOc1ccc(Cl)cc1C(=O)Nc1cccc(-c2nnc(-c3ccco3)o2)c1 [Compound 123, 5-Chloro-N-(3-(5-(furan-2-yl)-1,3,4-oxadiazol-2-yl)phenyl)-2-propoxybenzamide] | 90 | 100 | 87 | – | –
COc1ccc(Cl)cc1C(=O)Nc1cccc(-c2nnc(-c3ccco3)o2)c1 [Compound 124, 5-Chloro-N-(3-(5-(furan-2-yl)-1,3,4-oxadiazol-2-yl)phenyl)-2-methoxybenzamide] | 92 | 100 | 62 | – | –
CCOc1ccc(F)cc1C(=O)Nc1cccc(-c2nnc(-c3ccco3)o2)c1 [Compound 125, 2-Ethoxy-5-fluoro-N-(3-(5-(furan-2-yl)-1,3,4-oxadiazol-2-yl)phenyl)benzamide] | 92 | 97 | 67 | – | –
CCCOc1ccc(F)cc1C(=O)Nc1cccc(-c2nnc(-c3ccco3)o2)c1 [Compound 126] | 83 | 100 | 110 | – | –
COc1ccc(F)cc1C(=O)Nc1cccc(-c2nnc(-c3ccco3)o2)c1 [Compound 127] | 85 | 100 | 210 | – | –
COc1ccccc1C(=O)Nc1cc(-c2nnc(-c3ccco3)o2)ccc1F [Compound 128, N-(2-Fluoro-5-(5-(furan-2-yl)-1,3,4-oxadiazol-2-yl)phenyl)-2-methoxybenzamide] | 100 | 100 | 29 | < 100 | –
O=C(Nc1cc(F)cc(-c2nnc(-c3ccco3)o2)c1)c1ccccc1F [Compound 130] | 50 | – | – | – | 57
Cc1cc(NC(=O)c2ccccc2F)cc(-c2nnc(-c3ccco3)o2)c1 [Compound 132] | 26 | – | – | – | 39
COc1cc(NC(=O)c2ccccc2F)cc(-c2nnc(-c3ccco3)o2)c1 [Compound 133] | 19 | – | – | – | 17
O=C(Nc1cccc(-c2nnc(-c3ccco3)s2)c1)c1ccccc1F [Compound 135] | 56 | – | – | – | 62
COc1ccc(NC(=O)c2ccccc2F)cc1-c1nnc(-c2ccco2)o1 [Compound 136] | 28 | – | – | – | 23
O=C(Nc1cccc(-c2nnc(-c3cnco3)o2)c1)c1ccccc1F [Compound 137] | 37 | – | – | – | 48
O=C(Nc1cc(-c2nnc(-c3ccno3)o2)ccc1F)c1ccccc1F [Compound 139] | 50 | – | – | – | 48
COc1c(NC(=O)c2ccccc2F)cccc1-c1nnc(-c2ccco2)o1 [Compound 140] | 29 | – | – | – | –
O=C(Nc1cccc(-c2nnc(-c3ccco3)o2)c1)c1cc(Br)ccc1I [Compound 141] | 65 | 67 | – | – | –
O=C(Nc1cccc(-c2nnc(-c3ccco3)o2)c1)c1c(F)cccc1F [Compound 143] | 13 | 17 | – | – | –
O=C(Nc1cccc(-c2nnc(-c3ccco3)o2)c1)c1cc(F)c(F)cc1F [Compound 144] | 73 | 92 | 130 | – | –
O=C(Nc1cccc(-c2nnc(-c3ccco3)o2)c1)c1c(F)cccc1Cl [Compound 145] | 9 | 38 | – | – | –
O=C(Nc1cccc(-c2nnc(-c3ccco3)o2)c1)c1cccc(Cl)c1Cl [Compound 150] | 72 | 92 | 410 | – | –
COc1cccc(C(=O)Nc2cccc(-c3nnc(-c4ccco4)o3)c2)c1OC [Compound 169] | 74 | 93 | 470 | – | –
COc1cccc(OC)c1C(=O)Nc1cccc(-c2nnc(-c3ccco3)o2)c1 [Compound 170] | 20 | 27 | – | – | –
COc1ccc(OC)c(C(=O)Nc2cccc(-c3nnc(-c4ccco4)o3)c2)c1 [Compound 171] | 79 | 100 | 350 | – | –

Now from value to compound:

inhibition at 1 µM [%] | inhibition at 10 µM [%] | IC50 [1] [nM] | IC50 (read-out: IC50 values (upper bounds)) [nM] | % inh @ 1 μM [%] | SMILES
6 | 26 | – | – | – | CC(=O)Nc1ccccc1C(=O)Nc1cccc(-c2nnc(-c3ccco3)o2)c1 [Compound 172]
96 | 100 | 110 | – | – | CCOc1ccccc1C(=O)Nc1cccc(-c2nnc(-c3ccco3)o2)c1 [Compound 174]
90 | 100 | 150 | – | – | CCCOc1ccccc1C(=O)Nc1cccc(-c2nnc(-c3ccco3)o2)c1 [Compound 175]
73 | 100 | 220 | – | – | Cc1ccc(F)c(C(=O)Nc2cccc(-c3nnc(-c4ccco4)o3)c2)c1 [Compound 176]
3 | 1 | – | – | – | O=C(Nc1cccc(-c2nnc(-c3ccco3)o2)c1)c1ccc2c(c1)OCO2 [Compound 177]
27 | – | – | – | – | O=C(Nc1cccc(-c2nnc(-c3ccco3)o2)c1)c1cccc2c1OCO2 [Compound 178]
17 | 41 | – | – | – | COc1cccc(F)c1C(=O)Nc1cccc(-c2nnc(-c3ccco3)o2)c1 [Compound 179]
34 | 68 | – | – | – | CSc1ccccc1C(=O)Nc1cccc(-c2nnc(-c3ccco3)o2)c1 [Compound 181]
33 | – | – | – | – | COc1c(C)cccc1C(=O)Nc1cccc(-c2nnc(-c3ccco3)o2)c1 [Compound 182]
92 | 100 | 390 | – | – | O=C(Nc1cccc(-c2nnc(-c3ccco3)o2)c1)c1cccc(Cl)c1F [Compound 186]
93 | 100 | 640 | – | – | O=C(Nc1cccc(-c2nnc(-c3ccco3)o2)c1)c1cc(Br)ccc1F [Compound 188]
92 | 100 | 320 | – | – | O=C(Nc1cccc(-c2nnc(-c3ccco3)o2)c1)c1cc(Cl)ccc1F [Compound 189]
80 | 100 | 290 | – | – | Cc1cccc(C(=O)Nc2cccc(-c3nnc(-c4ccco4)o3)c2)c1F [Compound 190]
82 | 100 | 330 | – | – | O=C(Nc1cccc(-c2nnc(-c3ccco3)o2)c1)c1cccc(Br)c1F [Compound 191]
89 | – | 92 | – | 93 | COc1c(Br)cccc1C(=O)Nc1cccc(-c2nnc(-c3ccco3)o2)c1 [Compound 192, 3-Bromo-N-(3-(5-(furan-2-yl)-1,3,4-oxadiazol-2-yl)phenyl)-2-methoxybenzamide]
92 | 90 | 67 | – | – | COc1c(Cl)cccc1C(=O)Nc1cccc(-c2nnc(-c3ccco3)o2)c1 [Compound 193, 3-Chloro-N-(3-(5-(furan-2-yl)-1,3,4-oxadiazol-2-yl)phenyl)-2-methoxybenzamide]
70 | 88 | 360 | – | – | O=C(Nc1cccc(-c2nnc(-c3ccco3)o2)c1)c1cc(F)ccc1F [Compound 195]
68 | 97 | 340 | – | – | O=C(Nc1cccc(-c2nnc(-c3ccco3)o2)c1)c1cccc(F)c1F [Compound 196]
